Experiments:
[1] = target: T1, 5-hydroxytryptamine receptor 1A (Rattus norvegicus) (UniProt P19327); assay: Antagonist activity to stimulate binding of [35S]-GTP-gamma S binding to 5-hydroxytryptamine 1A receptor in isolated rat hippocampal membranes; assay type: functional, cell membranes; conditions: Membrane, scale: (fM of GTP-gammaS bound)
T1 sequence (whole entry): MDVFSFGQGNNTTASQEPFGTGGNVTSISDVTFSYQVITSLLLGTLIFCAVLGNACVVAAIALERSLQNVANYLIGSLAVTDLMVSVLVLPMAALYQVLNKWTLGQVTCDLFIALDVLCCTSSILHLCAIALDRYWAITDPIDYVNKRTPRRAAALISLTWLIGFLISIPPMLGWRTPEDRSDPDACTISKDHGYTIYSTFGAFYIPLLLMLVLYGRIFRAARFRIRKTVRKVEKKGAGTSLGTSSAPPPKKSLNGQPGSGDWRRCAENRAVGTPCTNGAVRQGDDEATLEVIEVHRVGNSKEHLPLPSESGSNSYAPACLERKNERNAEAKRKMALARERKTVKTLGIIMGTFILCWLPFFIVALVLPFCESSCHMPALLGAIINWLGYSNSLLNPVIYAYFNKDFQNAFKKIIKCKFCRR

[2] = target: T1, 5-hydroxytryptamine receptor 1A (Rattus norvegicus); assay: Antagonist activity to stimulate binding of [35S]GTP-gamma-S, to 5-hydroxytryptamine 1A receptor in isolated rat hippocampal membranes; assay type: functional, cell membranes; conditions: Membrane, scale: (fM of GTP-gammaS bound)
[3] = target: T1, 5-hydroxytryptamine receptor 1A (Rattus norvegicus); assay: Percent increase of R(+)-8-OH-DPAT stimulated [35S]GTP-gamma-S, binding to 5-hydroxytryptamine 1A receptor in isolated rat hippocampal membranes; assay type: functional, cell membranes; conditions: Membrane
[4] = target: T2, 5-hydroxytryptamine receptor 1A (Mus musculus) (UniProt Q64264); assay: Antagonist activity at 5-hydroxytryptamine 1A receptor against (+)-8-OH-DPAT induced hypothermia in mice at 10 mg/kg after 60 min; assay type: functional, organism-based; design: dose 10 mg/kg
T2 sequence (whole entry): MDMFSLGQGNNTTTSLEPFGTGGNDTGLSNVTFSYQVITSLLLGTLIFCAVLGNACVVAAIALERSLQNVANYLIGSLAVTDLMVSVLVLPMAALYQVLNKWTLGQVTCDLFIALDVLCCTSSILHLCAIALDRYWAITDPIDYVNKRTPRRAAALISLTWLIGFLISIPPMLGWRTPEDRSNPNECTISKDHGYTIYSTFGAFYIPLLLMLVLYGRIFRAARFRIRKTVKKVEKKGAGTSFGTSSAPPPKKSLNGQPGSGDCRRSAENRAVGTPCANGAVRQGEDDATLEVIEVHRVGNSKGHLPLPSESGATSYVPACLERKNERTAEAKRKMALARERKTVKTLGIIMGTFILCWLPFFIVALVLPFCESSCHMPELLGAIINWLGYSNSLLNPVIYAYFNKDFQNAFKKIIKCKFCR

[5] = target: T2, 5-hydroxytryptamine receptor 1A (Mus musculus); assay: Antagonist activity at 5-hydroxytryptamine 1A receptor against (+)-8-OH-DPAT induced hypothermia in mice at 1 mg/kg after 15 min; assay type: functional, organism-based; design: dose 1 mg/kg
[6] = target: T2, 5-hydroxytryptamine receptor 1A (Mus musculus); assay: Antagonist activity at 5-hydroxytryptamine 1A receptor against (+)-8-OH-DPAT induced hypothermia in mice at 1 mg/kg after 60 min; assay type: functional, organism-based; design: dose 1 mg/kg
[7] = target: T3, 5-hydroxytryptamine receptor 1A (Rattus norvegicus, UniProt P19327); assay: Inhibition of (+)-8-OH-DPAT stimulated [35S]GTP-gamma-S, binding to 5-hydroxytryptamine 1A receptor in hippocampal membranes; assay type: functional, cell membranes
T3 sequence (P19327 whole entry): T1 sequence (whole entry)

[8] = target: T2, 5-hydroxytryptamine receptor 1A (Mus musculus); assay: Antagonist activity at 5-hydroxytryptamine 1A receptor against (+)-8-OH-DPAT induced hypothermia in mice at 1 mg/kg after 30 min; assay type: functional, organism-based; design: dose 1 mg/kg
[9] = target: Sodium-dependent serotonin transporter (Rattus norvegicus, UniProt P31652); assay: Binding affinity towards Serotonin transporter (5-HTT) in rat frontal cortex homogenates; assay type: tissue-based
Chain of Sodium-dependent serotonin transporter (P31652 whole entry): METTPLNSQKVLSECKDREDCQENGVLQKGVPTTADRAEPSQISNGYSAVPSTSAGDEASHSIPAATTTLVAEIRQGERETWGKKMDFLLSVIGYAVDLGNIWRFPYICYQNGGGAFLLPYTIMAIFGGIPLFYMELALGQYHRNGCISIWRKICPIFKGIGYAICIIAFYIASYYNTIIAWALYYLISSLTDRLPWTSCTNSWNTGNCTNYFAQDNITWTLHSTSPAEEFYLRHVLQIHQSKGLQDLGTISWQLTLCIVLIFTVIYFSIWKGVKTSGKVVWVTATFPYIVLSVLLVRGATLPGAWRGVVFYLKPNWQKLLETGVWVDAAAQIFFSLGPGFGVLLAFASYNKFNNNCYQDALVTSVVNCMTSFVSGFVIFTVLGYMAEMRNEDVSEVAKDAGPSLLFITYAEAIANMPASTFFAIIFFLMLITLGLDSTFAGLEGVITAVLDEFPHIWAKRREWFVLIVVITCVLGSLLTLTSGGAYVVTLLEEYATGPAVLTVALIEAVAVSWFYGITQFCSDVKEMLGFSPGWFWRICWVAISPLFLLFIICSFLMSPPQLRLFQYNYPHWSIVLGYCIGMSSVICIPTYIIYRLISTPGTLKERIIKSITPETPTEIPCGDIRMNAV

[10] = target: T3, 5-hydroxytryptamine receptor 1A; assay: Binding affinity towards 5-hydroxytryptamine 1A receptor in rat frontal cortex homogenates; assay type: tissue-based
[11] = target: T1, 5-hydroxytryptamine receptor 1A (Rattus norvegicus); assay: Inhibition of (+)-8-OH-DPAT stimulated [35S]GTP-gamma-S, binding in rat hippocampal membranes; assay type: functional, cell membranes; conditions: Hippocampus, Membrane, scale: (fM of GTP-gammaS bound)
[12] = target: T2, 5-hydroxytryptamine receptor 1A (Mus musculus); assay: Antagonist activity at 5-hydroxytryptamine 1A receptor against (+)-8-OH-DPAT induced hypothermia in mice at 10 mg/kg after 30 min; assay type: functional, organism-based; design: dose 10 mg/kg
[13] = target: T2, 5-hydroxytryptamine receptor 1A (Mus musculus); assay: Antagonist activity at 5-hydroxytryptamine 1A receptor against (+)-8-OH-DPAT induced hypothermia in mice at 10 mg/kg after 15 min; assay type: functional, organism-based; design: dose 10 mg/kg
[14] = target: T1, 5-hydroxytryptamine receptor 1A (Rattus norvegicus); assay: Percent inhibition of (+)-8-OH-DPAT stimulated [35S]GTP-gamma-S, binding to 5-hydroxytryptamine 1A receptor in hippocampal membranes; assay type: functional, cell membranes; design: concentration or dose not given beside the values; conditions: concentration not given here

| SMILES | Max [1] | Basal [2] | Increase [3] | Change in body temperature [4] | Change in body temperature [5] | Change in body temperature [6] | IC50 [7] | Change in body temperature [8] | Ki [9] | Ki ([10]; read-out: Ki) | Basal [11] | Max [11] | Change in body temperature [12] | Change in body temperature [13] | inhibition [14] | Ki [10] |
| --- | --- | --- | --- | --- | --- | --- | --- | --- | --- | --- | --- | --- | --- | --- | --- | --- |
| OC(CCN1CCN(c2cccc3cccnc23)CC1)c1csc2ccc(F)cc12 (stereo not given) | 23.9 | 13.9 | 71.4% | – | – | – | – | – | – | – | – | – | – | – | – | – |
| OC(CCN1CCN(c2cccc3cccnc23)CC1)c1csc2ccccc12 (stereo not given) | 15.6 | 11.9 | 31% | -0.2 °C | -2.38 °C | -1.09 °C | 18 nM | -1.86 °C | 24 nM | 6.3 nM | 16.4 | 19.7 | -0.52 °C | -0.8 °C | 69% | – |
| OC(CCN1CCN(c2cccc3ccccc23)CC1)c1csc2ccc(F)cc12 (stereo not given) | – | – | – | – | – | – | – | – | 6 nM | – | – | – | – | – | – | – |
| OC(CCN1CCN(c2cccc3ccccc23)CC1)c1csc2ccccc12 (stereo not given) | – | – | – | – | – | – | – | – | 81.7 nM | 66.7 nM | – | – | – | – | – | – |
| OC(CCN1CCN(c2cnc3ccccc3c2)CC1)c1csc2ccccc12 (stereo not given) | – | – | – | – | – | – | – | – | 4.2 nM | 995 nM | – | – | – | – | – | – |
| OC(CCN1CCN(c2cccc3[nH]ccc23)CC1)c1csc2ccc(F)cc12 (stereo not given) | 13.7 | 10.1 | 35.5% | -0.95 °C | -3.28 °C | -2.72 °C | 16.1 nM | -3.61 °C | – | – | 11.2 | 10.1 | -0.89 °C | -0.95 °C | 110% | – |
| OC(CCN1CCN(c2cccc3c2OCCO3)CC1)c1csc2ccccc12 (stereo not given) | 16.1 | 15.6 | 3.4% | -0.5 °C | -2.9 °C | -1.94 °C | 56.2 nM | -2.47 °C | 50 nM | 5.7 nM | 18.5 | 19.1 | -1.03 °C | -1.38 °C | 90% | – |
| OC(CCN1CCN(c2cccc3c2OCO3)CC1)c1csc2ccc(F)cc12 (stereo not given) | – | – | – | – | – | – | – | – | 58 nM | 9.4 nM | – | – | – | – | – | – |
| OC(CCN1CCN(c2cccc3c2OCCCO3)CC1)c1csc2ccc(F)cc12 (stereo not given) | 17.7 | 14.4 | 22.8% | – | – | – | 360 nM | – | 21.2 nM | 3 nM | 18.7 | 20.4 | – | – | 84% | – |
| OC(CCN1CCN(c2cccc3c2OCCCO3)CC1)c1csc2ccccc12 (stereo not given) | – | – | – | – | – | – | – | – | 77 nM | – | – | – | – | – | – | 1.9 nM |
| CCCN(CCC)C1CCc2cccc(O)c2C1 (stereo not given) | 25.9 | 13.5 | 91.8% | – | – | – | – | – | – | – | 13 | 23.8 | – | – | – | – |
| OC(CCN1CCN(c2cccc3[nH]ccc23)CC1)c1csc2ccccc12 (stereo not given) | 16.9 | 13.4 | 26.3% | -0.8 °C | -2.08 °C | -1.13 °C | 31.2 nM | -1.59 °C | – | – | 12.8 | 13.9 | 0.84 °C | -1.03 °C | 90% | – |
| OC(CCN1CCN(c2cccc3ncccc23)CC1)c1csc2ccccc12 (stereo not given) | – | – | – | – | – | – | – | – | 32.5 nM | 36.8 nM | – | – | – | – | – | – |
| OC(CCN1CCN(c2ccc3sccc3c2)CC1)c1csc2ccccc12 (stereo not given) | – | – | – | – | – | – | – | – | 3.2 nM | 913 nM | – | – | – | – | – | – |
| OC(CCN1CCN(c2cccc3c2OCCO3)CC1)c1csc2ccc(F)cc12 (stereo not given) | 14 | 11.9 | 17.9% | -0.84 °C | -1.49 °C | -1.04 °C | 31.2 nM | -1.04 °C | 16 nM | – | 19.1 | 18.9 | -0.72 °C | -1.33 °C | 101% | – |
